Strand notation (5' to 3'): a small letter for the sugar, then the base; units joined by * are phosphorothioate-linked, units joined directly phosphodiester-linked; [ ] holds rarer units or linkages, { } end groups; capitals alone tell only the bases. k = constrained ethyl (cEt); [5mC] = 5-methylcytosine; d = 2'-deoxy (DNA)
system: human SMAD7 mRNA; assay: Antisense inhibition of human SMAD7 mRNA expression in Hep3B cells by 3-10-3 cEt gapmers, 10,000 nM, electroporation (Example 2); type: cell-based; details: Hep3B cells, 10,000 nM antisense oligonucleotide, electroporation, approximately 24 hours, RT-PCR primer probe set RTS5062, relative to untreated control cells
Procedure, shortened: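 Hep3B cells (20,000/well) were electroporated with 10,000 nM 3-10-3 cEt gapmer (16-mer, phosphorothioate, 5-methylcytosines) and harvested after about 24 h. SMAD7 mRNA quantified by RT-qPCR with primer probe set RTS5062, normalized to total RNA by RiboGreen; percent inhibition relative to untreated cells.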

Going from “799852 (k[5mC]*kA*kA*dG*dT*dG*dT*d[5mC]*d[5mC]*dA*dT*d[5mC]*dA*kA*kG*k[5mC]; antisense) [compound 799852]” to “798822 (kG*kT*kA*dG*dA*dG*d[5mC]*d[5mC]*dT*d[5mC]*d[5mC]*d[5mC]*d[5mC]*kA*k[5mC]*kT; antisense) [compound 798822]”, the “% Inhibition” value rises from 11% to 56%.

First: 798821 (kA*kG*k[5mC]*d[5mC]*dT*d[5mC]*d[5mC]*d[5mC]*d[5mC]*dA*d[5mC]*dT*d[5mC]*kT*k[5mC]*kG; antisense) [compound 798821]
Second: 798856 (kT*kG*k[5mC]*dG*dG*dT*dT*dG*dT*dA*d[5mC]*dA*d[5mC]*k[5mC]*k[5mC]*kA; antisense) [compound 798856]
The “% Inhibition” value of the first is lower: 32% for the first, 67% for the second.

Compared with “800074 (antisense kG*kG*kG*d[5mC]*dA*dT*dT*d[5mC]*dT*dG*dA*d[5mC]*dT*k[5mC]*k[5mC]*kT) [compound 800074]”, “798873 (kG*k[5mC]*kT*dG*dT*dA*d[5mC]*dG*d[5mC]*d[5mC]*dT*dT*d[5mC]*kT*k[5mC]*kG; antisense) [compound 798873]” is lower in “% Inhibition” value: 33% for the first, 27% for the second.

With “800077 (antisense k[5mC]*k[5mC]*kT*dT*dA*dA*d[5mC]*dA*dA*dA*dG*d[5mC]*dT*kT*k[5mC]*k[5mC]) [compound 800077]” the “% Inhibition” value was 36%.

same assay, conditions: Hep3B cells, electroporation with 10,000 nM antisense oligonucleotide, approximately 24 hours, RTS5062, percent inhibition of SMAD7 mRNA relative to untreated control cells

Going from “799552 (kA*kG*kG*dG*dA*dA*d[5mC]*dA*dA*dT*dT*dA*d[5mC]*kA*kG*k[5mC]; antisense) [compound 799552]” to “799723 (antisense kA*kG*k[5mC]*d[5mC]*dA*dA*d[5mC]*d[5mC]*d[5mC]*dT*dG*dG*d[5mC]*kA*k[5mC]*k[5mC]) [compound 799723]”, the “% Inhibition” value falls from 58% to 0%.

“799770 (kG*kT*kT*dT*d[5mC]*d[5mC]*dA*dA*dG*dG*d[5mC]*d[5mC]*dG*kG*k[5mC]*kG; antisense) [compound 799770]” and “799763 (antisense kT*kG*kT*d[5mC]*d[5mC]*dT*dA*dA*dA*dG*dA*d[5mC]*dG*kG*k[5mC]*kT) [compound 799763]” are the same in “% Inhibition” value: 50% for the first, 50% for the second.

same assay, conditions: Hep3B cells, electroporation with 10,000 nM antisense oligonucleotide, approximately 24 hours, SMAD7 mRNA by RT-PCR (RTS5062), relative to untreated control cells

Compared with “799394 (antisense kA*k[5mC]*kA*dG*dA*dG*dA*dG*d[5mC]*dT*dG*dG*dG*kT*kA*kT) [compound 799394]”, “799926 (antisense k[5mC]*k[5mC]*k[5mC]*dA*dA*dG*d[5mC]*d[5mC]*dT*dA*d[5mC]*dA*dT*kA*kT*kT) [compound 799926]” is lower in “% Inhibition” value: 33% for the first, 17% for the second.

First: 799487 (antisense kA*kA*kA*d[5mC]*dA*dT*dA*dA*dT*dG*dA*d[5mC]*dT*kT*kA*kT) [compound 799487]
Second: 830148 (antisense kG*kG*kA*d[5mC]*dT*dG*dG*dT*d[5mC]*dT*dT*d[5mC]*dA*k[5mC]*k[5mC]*kA) [compound 830148]
The “% Inhibition” value of the first is lower: 0% for the first, 19% for the second.

Compared with “798769 (k[5mC]*k[5mC]*kT*dG*dA*dG*dA*dT*d[5mC]*d[5mC]*dG*dG*d[5mC]*k[5mC]*kA*k[5mC]; antisense) [compound 798769]”, “798817 (kG*k[5mC]*k[5mC]*dA*d[5mC]*d[5mC]*dA*d[5mC]*dG*d[5mC]*dA*d[5mC]*d[5mC]*kA*kG*kT; antisense) [compound 798817]” is lower in “% Inhibition” value: 58% for the first, 26% for the second.

With “798851 (kA*k[5mC]*k[5mC]*dA*dT*d[5mC]*d[5mC]*dA*d[5mC]*d[5mC]*dT*d[5mC]*d[5mC]*k[5mC]*kG*k[5mC]; antisense) [compound 798851]” the “% Inhibition” value was 21%.

same assay, conditions: Hep3B cells, electroporation with 10,000 nM antisense oligonucleotide, approximately 24 hours, primer probe set RTS5062, relative to untreated control cells

Compared with “798660 (kT*kG*k[5mC]*d[5mC]*d[5mC]*d[5mC]*dA*d[5mC]*d[5mC]*d[5mC]*d[5mC]*dG*d[5mC]*kG*k[5mC]*kG; antisense) [compound 798660]”, “799438 (antisense kA*kA*kG*dA*dG*dA*dG*dA*dA*dA*d[5mC]*dG*d[5mC]*kA*kG*kT) [compound 799438]” is lower in “% inhibition of SMAD7 mRNA expression” value: 38% for the first, 32% for the second.

First: 799085 (antisense kG*k[5mC]*k[5mC]*d[5mC]*dT*dT*dG*dG*dG*dA*dA*dG*d[5mC]*k[5mC]*k[5mC]*kA) [compound 799085]
Second: 799417 (antisense kG*kG*k[5mC]*d[5mC]*dA*dA*dA*d[5mC]*dA*dT*dT*d[5mC]*dT*k[5mC]*k[5mC]*k[5mC]) [compound 799417]
The “% inhibition of SMAD7 mRNA expression” value of the first is lower: 10% for the first, 26% for the second.

“799183 (antisense k[5mC]*kT*kT*dT*dG*dT*dA*dG*dT*dT*dA*dG*dA*kA*kA*kA) [compound 799183]” was tested, and the “% inhibition of SMAD7 mRNA expression” value was 0%.

In the case of “799175 (antisense kT*kA*kA*dA*dG*dT*d[5mC]*dT*dA*dA*dA*d[5mC]*dA*kT*kG*k[5mC]) [compound 799175]”, the “% Inhibition” value is reported as 0%.

same assay, conditions: Hep3B cells, electroporation, 10,000 nM antisense oligonucleotide, approximately 24 hours, RTS5062, relative to untreated control cells

First: 799831 (antisense kT*kA*k[5mC]*dT*dT*dG*dG*dA*dA*dG*dA*dG*dT*kT*kT*kG) [compound 799831]
Second: 799578 (kA*k[5mC]*k[5mC]*dT*dT*d[5mC]*d[5mC]*dG*dA*dA*dA*dG*dG*kA*k[5mC]*k[5mC]; antisense) [compound 799578]
The “% inhibition of SMAD7 mRNA expression” value of the first is lower: 18% for the first, 76% for the second.

First: 799796 (k[5mC]*kA*kT*dT*dA*dG*dA*dT*dA*d[5mC]*dT*dG*dT*k[5mC]*kT*kT; antisense) [compound 799796]
Second: 799299 (antisense kA*kT*kT*d[5mC]*d[5mC]*dA*dA*dA*dA*dG*dG*d[5mC]*dT*kG*kA*k[5mC]) [compound 799299]
The “% inhibition of SMAD7 mRNA expression” value of the first is higher: 43% for the first, 42% for the second.

same assay, conditions: SMAD7 mRNA, Hep3B cells, 10,000 nM antisense oligonucleotide, electroporation, approximately 24 hours, primer probe set RTS5062, relative to untreated control cells

First: 829737 (antisense kA*kG*kG*dA*dG*d[5mC]*dG*dA*dA*d[5mC]*dA*dT*dG*kA*k[5mC]*k[5mC]) [compound 829737]
Second: 829756 (antisense k[5mC]*k[5mC]*kG*dT*d[5mC]*dG*d[5mC]*d[5mC]*d[5mC]*d[5mC]*dT*dT*d[5mC]*kT*k[5mC]*k[5mC]) [compound 829756]
The “% Inhibition” value of the first is higher: 52% for the first, 42% for the second.

Compared with “800998 (antisense k[5mC]*k[5mC]*k[5mC]*dG*d[5mC]*dT*d[5mC]*dT*d[5mC]*dA*dG*d[5mC]*d[5mC]*kA*kG*kG) [compound 800998]”, “772614 (kG*kA*k[5mC]*dT*d[5mC]*dT*dT*dG*dT*dT*dG*dT*d[5mC]*k[5mC]*kG*kA; antisense) [compound 772614]” is higher in “% Inhibition” value: 39% for the first, 43% for the second.

“790696 (k[5mC]*kA*kA*dA*dG*dG*dT*dA*dA*dG*d[5mC]*d[5mC]*dA*kG*k[5mC]*kT; antisense) [compound 790696]” and “790469 (k[5mC]*kG*kG*dA*d[5mC]*dG*dA*dG*d[5mC]*dG*d[5mC]*dA*dG*kA*kT*k[5mC]; antisense) [compound 790469]” are the same in “% Inhibition” value: 41% for the first, 41% for the second.

same assay, conditions: SMAD7 mRNA, Hep3B cells, electroporation with 10,000 nM antisense oligonucleotide, approximately 24 hours, primer probe set RTS5062, relative to untreated control cells

First: 829809 (kG*kG*kG*dA*dG*dA*d[5mC]*dT*d[5mC]*dT*dA*dG*dT*kT*k[5mC]*kG; antisense) [compound 829809]
Second: 829810 (kA*kT*k[5mC]*dG*dG*dG*dT*dA*dT*d[5mC]*dT*dG*dG*kA*kG*kT; antisense) [compound 829810]
The “% Inhibition” value of the first is higher: 51% for the first, 29% for the second.

First: 829883 (antisense k[5mC]*kA*kG*dG*d[5mC]*dT*dG*dT*dA*d[5mC]*dG*d[5mC]*d[5mC]*kT*kT*k[5mC]) [compound 829883]
Second: 829910 (antisense kG*kA*kG*dT*dT*dT*dG*d[5mC]*dA*dT*dG*dA*dA*kA*kA*kG) [compound 829910]
The “% Inhibition” value of the first is lower: 0% for the first, 49% for the second.

“829997 (kG*kT*kT*dT*dG*dT*d[5mC]*dT*dT*dA*dG*d[5mC]*dT*kG*kT*kG; antisense) [compound 829997]” was tested, and the “% Inhibition” value was 21%.

Source: US10517889B2, “Modulators of SMAD7 expression” (Ionis Pharmaceuticals, Inc., priority 2017, dated 2019)
